Experimental findings from US20260327244A1, “PYRIDO[4,3-D]PYRIMIDINE COMPOUNDS” (Pfizer Inc., priority 2022, published 2026) are described below.

Usually Kd stands for the equilibrium constant for the complex coming apart. Lower therefore signals tighter binding.

Test [1] addresses T1, wild-type (WT) KRAS (aa1-185) (Homo sapiens, UniProt P01116).
T1 construct: wild-type (WT) KRAS (aa1-185)
The test can be described thus: KRAS Surface Plasma Resonance (SPR) binding assay, WT KRAS. The following applies: SPR at 10 °C, geometric mean when tested more than once. An excerpt:
No additional regeneration was used.
Compound dissociation was monitored for at least 3600 seconds. […] No additional regeneration was used.

For test [2], the target named is G12D KRAS (aa1-185) (Homo sapiens, UniProt P01116, G12D). The test can be described thus: biochemical.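 Note: surface plasmon resonance at 10 °C, KRAS captured on a streptavidin chip in GDP-containing buffer, compound dilution series injected, blank streptavidin surface as reference.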
Chain of G12D KRAS (aa1-185) (P01116 1-185 isoform P01116-2 G12D): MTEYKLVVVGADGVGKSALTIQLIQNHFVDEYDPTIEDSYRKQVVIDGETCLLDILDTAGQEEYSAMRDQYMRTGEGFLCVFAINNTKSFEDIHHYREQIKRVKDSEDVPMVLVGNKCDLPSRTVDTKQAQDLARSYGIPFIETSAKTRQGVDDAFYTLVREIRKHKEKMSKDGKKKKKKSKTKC
Experimental: (§1) SPR assay was used to measure the kinetic binding constant (KD) of Examples of the present invention.
(§2) The binding affinity and kinetics of Examples of the present invention were measured by Surface Plasmon Resonance (SPR) using Biacore 8K or 8K+ (Cytiva, Marlborough, MA) instruments. Recombinant, C-terminal site-specific biotinylated, wild-type (WT) KRAS (aa1-185), G12D KRAS (aa1-185), G12C KRAS (aa2-184), G12V KRAS (aa2-184), WT HRAS (aa2-184) and WT NRAS (aa2-185) proteins purified in presence of 1 μM GDP were used in these experiments. Binding measurements were performed parallelly in sets of either WT/G12D/G12C/G12V KRAS or WT K/H/N RAS proteins.
(§3) Biacore instrument was desorbed and docked with a Series S Sensor Chip SA. The proteins were diluted to 50 μg/mL with the assay buffer (50 mM HEPES, 150 mM NaCl, 10 μM GDP, 5 mM MgCl2, 0.5 mM TCEP, 5% glycerol, 0.02% Tween-20, 2% DMSO, pH 7.2) and immobilized at a flow rate of 3 μL/min at 10° C. with a contact time of 15 min. to capture ~3000-4000 RUs of proteins on the surface. The functionalized surface was then equilibrated with assay buffer for approximately 1 hour. Un-functionalized SA surfaces with no immobilized protein served as reference for binding kinetic analysis. Compound binding kinetics were measured in either multi-cycle or single-cycle kinetic format.
(§4) A 2-fold, 10-point serial dilution of test compounds was set-up in a 96-well microplate (Greiner; Cat #650101) with a top concentration of either 10 μM or 100 μM. Binding kinetics was measured at 10° C. by injecting serial dilution of compounds onto both reference and RAS immobilized channels at a flow rate of 100 μL/min and association time of 90 seconds. Compound dissociation was monitored for at least 400 seconds during each cycle. No additional regeneration was used. DMSO calibration curve was obtained before and after compound analysis by injecting 0-4% of DMSO in assay buffer. A suitable compound with known affinity and kinetics was tested once in every experiment as a positive control to assess activity of the captured protein on the surface.
(§5) A 3-fold, 6-point serial dilution of compounds was set-up in a deep 96-well microplate (Greiner Bio; Cat #780201) with the highest concentration of 1 μM (concentration range: 0.004-1 μM). Binding kinetics was measured at 10° C. by injecting serial dilutions of compounds in increasing order onto reference as well as RAS immobilized channels at a flow rate of 100 μL/min and association time of 120 seconds. Compound dissociation was monitored for at least 3600 seconds. Two buffer blanks were also run in a single-cycle kinetics format before the compound run for double referencing. No additional regeneration was used. DMSO calibration curve was obtained before and after compound analysis by injecting 0-4% of DMSO in the assay buffer. A suitable compound with known affinity and kinetics was tested once in every experiment as a positive control to assess activity of the captured protein on the surface.
(§6) Both MCK and SCK data were processed and analyzed using Biacore Insight evaluation software (Cytiva, Marlborough, MA)). […] The adequateness of the fit was judged by c^2 values and the randomness of residue distribution.
(§7) A geometric mean of binding constant KD was provided when an Example was tested more than once (n is testing replicate number).
The target in test [3] is G12C KRAS (aa2-184) (Homo sapiens, UniProt P01116, G12C). Put plainly: biochemical.
Chain of G12C KRAS (aa2-184) (P01116 2-184 isoform P01116-2 G12C): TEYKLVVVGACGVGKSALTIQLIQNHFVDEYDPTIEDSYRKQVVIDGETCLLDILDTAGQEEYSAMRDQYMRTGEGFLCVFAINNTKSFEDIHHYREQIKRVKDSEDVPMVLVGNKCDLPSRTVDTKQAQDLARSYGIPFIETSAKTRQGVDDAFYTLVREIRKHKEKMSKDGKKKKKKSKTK
Experimental: as §1, §2, §3, §4, §5, §6, §7
The target of test [4] is G12V KRAS (aa2-184) (Homo sapiens, UniProt P01116, G12V). The test can be described thus: biochemical.
Chain of G12V KRAS (aa2-184) (P01116 2-184 isoform P01116-2 G12V): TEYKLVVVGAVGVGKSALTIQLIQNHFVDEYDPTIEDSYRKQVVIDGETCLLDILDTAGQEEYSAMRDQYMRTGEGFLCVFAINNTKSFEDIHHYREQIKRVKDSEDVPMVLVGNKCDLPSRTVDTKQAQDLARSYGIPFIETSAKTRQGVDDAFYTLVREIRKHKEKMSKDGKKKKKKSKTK
Experimental: as §1, §2, §3, §4, §5, §6, §7

T1 sequence (P01116 1-185 isoform P01116-2): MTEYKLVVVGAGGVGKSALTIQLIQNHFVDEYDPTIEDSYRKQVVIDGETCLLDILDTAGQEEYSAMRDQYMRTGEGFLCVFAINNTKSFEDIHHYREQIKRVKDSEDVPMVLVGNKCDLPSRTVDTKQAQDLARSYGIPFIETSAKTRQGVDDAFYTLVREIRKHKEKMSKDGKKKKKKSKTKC

`Oc1cc(-c2ncc3c(N4C[C@H]5C[C@@H](O)[C@H]5C4)nc(OC[C@@]45CCCN4C[C@H](F)C5)nc3c2F)c2c(Cl)cccc2c1` (relative stereo) [Example 21, (1S*,5R*,6R*)-3-[7-(8-chloro-3-hydroxynaphthalen-1-yl)-8-fluoro-2-{[(2R,7aS)-2-fluorotetrahydro-1H-pyrrolizin-7a(5H)-yl]methoxy}pyrido[4,3-d]pyrimidin-4-yl]-3-azabicyclo[3.2.0]heptan-6-ol]: the Kd in test [1] worked out at 1.76 nM; in test [2], 1.01 nM; in test [3] it was 1.9 nM; in test [4], 1.46 nM.
Turning to `C#Cc1cccc2cc(O)cc(-c3ncc4c(N5C[C@@H]6C[C@H](C5)[C@H](O)C6)nc(OC[C@@]56CCCN5C[C@H](F)C6)nc4c3F)c12` [Example 9, (1R,5R,6R)-3-[7-(8-ethynyl-3-hydroxynaphthalen-1-yl)-8-fluoro-2-{[(2R,7aS)-2-fluorotetrahydro-1H-pyrrolizin-7a(5H)-yl]methoxy}pyrido[4,3-d]pyrimidin-4-yl]-3-azabicyclo[3.2.1]octan-6-ol], the equilibrium dissociation constant (Kd) in test [1] stood at 0.019 nM; in test [2], 0.099 nM; in test [3], 0.447 nM; in test [4] it was 0.308 nM.
Taken in the same sequence, the figures for `Oc1cc(-c2ncc3c(N4C[C@@H]5C[C@H](O)[C@@H]5C4)nc(OC[C@@]45CCCN4C[C@H](F)C5)nc3c2F)c2c(Cl)cccc2c1` (relative stereo) [Example 22, (1R*,5S*,6S*)-3-[7-(8-chloro-3-hydroxynaphthalen-1-yl)-8-fluoro-2-{[(2R,7aS)-2-fluorotetrahydro-1H-pyrrolizin-7a(5H)-yl]methoxy}pyrido[4,3-d]pyrimidin-4-yl]-3-azabicyclo[3.2.0]heptan-6-ol] were 11.9 nM, 36.9 nM, 42.4 nM and 46.7 nM.
For `C#Cc1cccc2cc(O)cc(-c3ncc4c(N5C[C@@H]6C[C@H](O)[C@H](C5)O6)nc(OC[C@@]56CCCN5C[C@H](F)C6)nc4c3F)c12` (single isomer, unassigned) [Example 19, (1S*,5S*,6S*)-3-[7-(8-ethynyl-3-hydroxynaphthalen-1-yl)-8-fluoro-2-{[(2R,7aS)-2-fluorotetrahydro-1H-pyrrolizin-7a(5H)-yl]methoxy}pyrido[4,3-d]pyrimidin-4-yl]-8-oxa-3-azabicyclo[3.2.1]octan-6-ol] the same measures were 27.9 nM, 78.3 nM, 84.7 nM and 91.7 nM.
For `C#Cc1c(F)ccc2cccc(-c3nc4c5c(nc(OC[C@@]67CCCN6C[C@H](F)C7)nc5c3F)N3CCCC[C@H]3CO4)c12` [Example 29, (8aS)-5-(8-ethynyl-7-fluoronaphthalen-1-yl)-4-fluoro-2-{[(2R,7aS)-2-fluorotetrahydro-1H-pyrrolizin-7a(5H)-yl]methoxy}-8,8a,9,10,11,12-hexahydro-7-oxa-1,3,6,12a-tetraazabenzo[4,5]cyclohepta[1,2,3-de]naphthalene] the same measures were 5.75 nM, 1.55 nM, 3.65 nM and 1.48 nM.
Consider `N#C[C@@H]1CCCN1c1nc(OC[C@@]23CCCN2C[C@H](F)C3)nc2c(F)c(-c3cc(O)cc4ccc(F)c(F)c34)ncc12` [Example 11, (2S)-1-[7-(7,8-difluoro-3-hydroxynaphthalen-1-yl)-8-fluoro-2-{[(2R,7aS)-2-fluorotetrahydro-1H-pyrrolizin-7a(5H)-yl]methoxy}pyrido[4,3-d]pyrimidin-4-yl]pyrrolidine-2-carbonitrile], for which the Kd in test [1] amounted to 19.7 nM; in test [2] it was 23.6 nM; in test [3] it was 38.9 nM; in test [4], 98.7 nM.
Taken in the same sequence, the figures for `C#Cc1cccc2cc(O)cc(-c3ncc4c(N5C[C@H](CC#N)[C@@H](F)C5)nc(OC[C@@]56CCCN5C[C@H](F)C6)nc4c3F)c12` (mixture of isomers) [Example 7, {(3SR,4RS)-1-[7-(8-ethynyl-3-hydroxynaphthalen-1-yl)-8-fluoro-2-{[(2R,7aS)-2-fluorotetrahydro-1H-pyrrolizin-7a(5H)-yl]methoxy}pyrido[4,3-d]pyrimidin-4-yl]-4-fluoropyrrolidin-3-yl}acetonitrile] were 2.55 nM, 11.4 nM, 8.33 nM and 6.71 nM.
With `C#Cc1c(F)c(F)cc2cc(O)cc(-c3nc4c5c(nc(OC[C@@]67CCCN6C[C@H](F)C7)nc5c3F)N3CCCC[C@H]3CO4)c12` [Example 32, 5-ethynyl-6,7-difluoro-4-[(8aS)-4-fluoro-2-{[(2R,7aS)-2-fluorotetrahydro-1H-pyrrolizin-7a(5H)-yl]methoxy}-8,8a,9,10,11,12-hexahydro-7-oxa-1,3,6,12a-tetraazabenzo[4,5]cyclohepta[1,2,3-de]naphthalen-5-yl]naphthalen-2-ol], the Kd in test [1] is 0.009 nM; in test [2], 0.004 nM; in test [3] it was 0.004 nM; in test [4] it was 0.004 nM.
`C#Cc1c(F)ccc2cc(O)cc(-c3nc4c5c(nc(OC[C@@]67CCCN6C[C@H](F)C7)nc5c3F)N3CCC[C@@H](O)[C@H]3CO4)c12` [Example 28, (8aR,9R)-5-(8-ethynyl-7-fluoro-3-hydroxynaphthalen-1-yl)-4-fluoro-2-{[(2R,7aS)-2-fluorotetrahydro-1H-pyrrolizin-7a(5H)-yl]methoxy}-8,8a,9,10,11,12-hexahydro-7-oxa-1,3,6,12a-tetraazabenzo[4,5]cyclohepta[1,2,3-de]naphthalen-9-ol]: the Kd in test [1] amounted to 0.061 nM; in test [2], 0.03 nM; in test [3], 0.064 nM; in test [4], 0.028 nM.
For `C#Cc1c(F)ccc2cc(O)cc(-c3nc4c5c(nc(OC[C@@]67CCCN6C[C@H](F)C7)nc5c3F)N(C)CCO4)c12` [Example 24, 5-ethynyl-6-fluoro-4-(4-fluoro-2-{[(2R,7aS)-2-fluorotetrahydro-1H-pyrrolizin-7a(5H)-yl]methoxy}-10-methyl-9,10-dihydro-8H-7-oxa-1,3,6,10-tetraazacyclohepta[1,2,3-de]naphthalen-5-yl)naphthalen-2-ol] the same measures were 0.145 nM, 0.081 nM, 0.079 nM and 0.052 nM.
For `Oc1cc(-c2ncc3c(N4C[C@@H]5C[C@H](C4)[C@H](O)C5)nc(OC[C@@]45CCCN4C[C@H](F)C5)nc3c2F)c2ccccc2c1` [Example 17, (1R,5R,6R)-3-[8-fluoro-2-{[(2R,7aS)-2-fluorotetrahydro-1H-pyrrolizin-7a(5H)-yl]methoxy}-7-(3-hydroxynaphthalen-1-yl)pyrido[4,3-d]pyrimidin-4-yl]-3-azabicyclo[3.2.1]octan-6-ol] the same measures were 0.362 nM, 0.553 nM, 0.963 nM and 0.269 nM.
Taken in the same sequence, the figures for `C#Cc1cccc2cc(O)cc(-c3ncc4c(N5CCC[C@@H](CC#N)C5)nc(OC[C@@]56CCCN5C[C@H](F)C6)nc4c3F)c12` [Example 1, {(3S)-1-[7-(8-ethynyl-3-hydroxynaphthalen-1-yl)-8-fluoro-2-{[(2R,7aS)-2-fluorotetrahydro-1H-pyrrolizin-7a(5H)-yl]methoxy}pyrido[4,3-d]pyrimidin-4-yl]piperidin-3-yl}acetonitrile] were 0.273 nM, 0.268 nM, 1.23 nM and 0.454 nM.
On to `C#Cc1cccc2cc(O)cc(-c3ncc4c(N5CCC[C@@](C)(CC#N)C5)nc(OC[C@@]56CCCN5C[C@H](F)C6)nc4c3F)c12` [Example 8, {(3S)-1-[7-(8-ethynyl-3-hydroxynaphthalen-1-yl)-8-fluoro-2-{[(2R,7aS)-2-fluorotetrahydro-1H-pyrrolizin-7a(5H)-yl]methoxy}pyrido[4,3-d]pyrimidin-4-yl]-3-methylpiperidin-3-yl}acetonitrile], for which the Kd in test [1] is 0.398 nM; in test [2] it was 1.69 nM; in test [3], 1.54 nM; in test [4] it was 11.5 nM.
Taken in the same sequence, the figures for `C#Cc1c(F)ccc2cc(O)cc(-c3ncc4c(N5CCC[C@@H](CC#N)C5)nc(OC[C@@]56CCCN5C[C@H](F)C6)nc4c3F)c12` [Example 15, {(3S)-1-[7-(8-ethynyl-7-fluoro-3-hydroxynaphthalen-1-yl)-8-fluoro-2-{[(2R,7aS)-2-fluorotetrahydro-1H-pyrrolizin-7a(5H)-yl]methoxy}pyrido[4,3-d]pyrimidin-4-yl]piperidin-3-yl}acetonitrile] were 0.118 nM, 0.128 nM, 0.749 nM and 0.274 nM.
Taken in the same sequence, the figures for `C#Cc1cccc2cc(O)cc(-c3ncc4c(N5C[C@H]6CC[C@@H](C5)O6)nc(OC[C@@]56CCCN5C[C@H](F)C6)nc4c3F)c12` [Example 2, 5-ethynyl-4-(8-fluoro-2-{[(2R,7aS)-2-fluorotetrahydro-1H-pyrrolizin-7a(5H)-yl]methoxy}-4-[(1R,5S)-8-oxa-3-azabicyclo[3.2.1]octan-3-yl]pyrido[4,3-d]pyrimidin-7-yl)naphthalen-2-ol] were 0.422 nM, 1.89 nM, 1.64 nM and 0.515 nM.
